Reference: PMC3948622, “Docking, Synthesis and Antiproliferative Activity of N-Acylhydrazone Derivatives Designed as Combretastatin A4 Analogues” (PLoS ONE, 2014)
Converted amounts (≈) assume the structure as drawn. Where two headings read alike, the source gives them in different places.

What was measured:
PC3M (prostate cancer) = test: In vitro antiproliferative MTT assay, PC3M; assay type: cell-based; details: for IC50: Homo sapiens, PC-3M, Table 2, MTT; for SI Lymphocyte/ PC3M: IC50 for human lymphocytes/IC50 for cancer cell line
Method: (§1) The antiproliferative activity of compounds 5a–r was determined based on an MTT assay and using CA-4 as standard against the tumor cell lines: HL-60 (human leukemia), SF-295 (human glioblastoma), MDA-MB435 (melanoma), PC3M (prostate cancer), OVCAR-8 (ovaries adenocarcinoma), NCI-H258M (pulmonary bronchio-alveolar carcinoma) and HCT-8 (adenocarcinoma ileocecal) (Table 2). To determine the selectivity index of compounds 5a–r, their antiproliferative profile was also evaluated toward human lymphocytes (Table 2).
(§2) Compounds (0.009–5 µg/mL) were tested for cytotoxic activity against selected cancer cell lines: SF-295 (glioblastoma), HCT-8 (colon), MDAMB-435 (melanoma), HL60 (leukemia), PC3M (prostate cancer), OVCAR-8 (ovaries adenocarcinoma) and NCI-H258M (pulmonary bronchio-alveolar carcinoma). All cell lines were kindly obtained from the National Cancer Institute (Bethesda, MD, USA).Tumor cell proliferation was quantified through the ability of living cells to reduce the yellow dye 3-(4,5-dimethyl-2-thiazolyl)-2,5-diphenyl-2H-tetrazolium bromide (MTT, Sigma Aldrich)) to a purple formazan product and absorbance was measured at 595 nm (DTX-880, Beckman Coulter).

MDA-MB435 (melanoma) [1] = test: In vitro antiproliferative MTT assay, MDA-MB435; assay type: cell-based; details: IC50 for human lymphocytes/IC50 for cancer cell line
Method: as §1, §2

[2] = tested on: OVCAR-8 (ovaries adenocarcinoma); test: In vitro antiproliferative MTT assay, OVCAR-8; assay type: cell-based; details: for IC50: Homo sapiens, OVCAR-8, Table 2, MTT; for SI Lymphocyte/ OVCAR-8: IC50 for human lymphocytes/IC50 for cancer cell line
Method: as §1, §2

[3] = Aqueous solubility assay by ultraviolet spectroscopy; assay type: physicochemical; details: water (saturated aqueous solution), thermodynamic from solid, 2 hours at 37°C, read-out: Aq. Solubility
Method: Ultraviolet spectroscopy was performed using Femto spectrophotometer. The wavelength used in solubility assay was determined by the -λ max characteristic of each compound. Spectra were analyzed in Femtoscan software. Mass spectrometry was obtained by positive ionization at Bruker AmaZon SL and data analyzed in Compass 1.3.SR2 software.
The solubility assay was performed considering the absorptivity of compounds in ultraviolet spectroscopy as described by Schneider and coworkers. The assay wavelength was determined by the λ max characteristic of each compound.
Saturated aqueous solutions were prepared (0.01 mg/mL) and were kept under stirring for 2 hours at 37°C. The supernatant was filtered in 0,45 µm filters and transferred to a quartz cuvette (10 mm) to spectra acquisition.
Solubility was determined by linear regression using as graph plots, solutions prepared by dilutions of the original solution in methanol. The data were obtained in triplicates and the mean values were used to the graph plots. The correlation coefficient (R^2) values were between 0.9972 and 0.9999.

HL-60 (human leukemia) = test: In vitro antiproliferative MTT assay, HL-60; assay type: cell-based; details: for IC50: Homo sapiens, HL-60; for SI Lymphocyte/ HL-60: IC50 for human lymphocytes/IC50 for cancer cell line
Method: as §1, §2

[4] = tested on: HCT-8 (adenocarcinoma ileocecal); test: In vitro antiproliferative MTT assay, HCT-8; assay type: cell-based; details: for IC50: Homo sapiens, HCT-8; for SI Lymphocyte/ HCT-8: IC50 for human lymphocytes/IC50 for cancer cell line
Method: as §1, §2

[5] = tested on: NCI-H358M (pulmonary bronchio-alveolar carcinoma); test: In vitro antiproliferative MTT assay, NCI-H358M; assay type: cell-based; details: for SI Lymphocyte/ NCI-H358M: IC50 for human lymphocytes/IC50 for cancer cell line; for IC50: NCI-H358M, Table 2, MTT
MDA-MB435 (melanoma) [6] = test: In vitro antiproliferative MTT assay, MDA-MB435; assay type: cell-based; details: Homo sapiens, MDA-MB-435
human lymphocytes = test: In vitro antiproliferative assay, human lymphocytes; assay type: cell-based; details: Lymphocyte, Table 2
Method: as §1
To investigate the selective cytotoxic activity of the N-acylhydrazones derivatives (5a–r), their antiproliferative potency was also assessed toward human lymphocytes and the results were compared to the data from CA-4 ([…]). The selectivity index (SI), which was the IC50 for human lymphocytes/IC50 for cancer cell lines after treatment with CA-4 and N-acylhydrazones (5a–r), was calculated, as depicted in Table 3. […] The best comparative selectivity indices (CA-4 vs 5b) were obtained from the SF-295 (SI = 13), MDA-MB435 (SI = 42) and NCI-H258M (SI = 9.5) tumor cell lines, and the worst results were found for OVCAR-8 (SI = 0.5).

[7] = tested on: SF-295 (human glioblastoma); test: In vitro antiproliferative MTT assay, SF-295; assay type: cell-based; details: for IC50: Homo sapiens, SF-295, read-out: IC50 SF295; for SI Lymphocyte/ SF-295: IC50 for human lymphocytes/IC50 for cancer cell line
Method: as §1, §2

tumor cell lines = test: In vitro antiproliferative MTT assay, tumor cell lines (summary over the panel); assay type: cell-based; details: HL-60, SF296, HCT-8 and MDA-MB435 tumor cells
Method: as §1, §2

| SMILES | IC50 (PC3M (prostate cancer)) [µM] | SI Lymphocyte/ PC3M (PC3M (prostate cancer)) | SI Lymphocyte/ MDA-MB345 (MDA-MB435 (melanoma) [1]) | IC50 [2] [µM] | SI Lymphocyte/ OVCAR-8 [2] | solubility at 2 h [3] [µg/mL] | IC50 (HL-60 (human leukemia); Table 2, MTT) [µM] | SI Lymphocyte/ HL-60 (HL-60 (human leukemia)) | IC50 ([4]; Table 2, MTT) [µM] | SI Lymphocyte/ HCT-8 [4] | SI Lymphocyte/ NCI-H358M [5] | IC50 [5] [µM] | IC50 (MDA-MB435 (melanoma) [6]; Table 2, MTT) [µM] | IC50 (human lymphocytes) [µM] | IC50 ([7]; Table 2, MTT) [µM] | SI Lymphocyte/ SF-295 [7] | melting point [°C] | cytotoxic activity (in words) (tumor cell lines) | IC50 (HL-60 (human leukemia); Table 4) [µM] | IC50 ([4]; Table 4) [µM] | further results |
| --- | --- | --- | --- | --- | --- | --- | --- | --- | --- | --- | --- | --- | --- | --- | --- | --- | --- | --- | --- | --- | --- |
| COc1cc(C(=O)N/N=C/c2ccc3c(c2)OCO3)cc(OC)c1OC [Compound 5h, (E)-N′-(benzo[d][1], [3]dioxol-5-ylmethylene)-3,4,5-trimetoxybenzohydrazide] | 1.14 | 1.14±0.06 | 13.17±1.37 | 1.09 | 1.16±0.04 | 1.34 (≈ 3.74 µM) | 3.07 | 0.43±0.01 | 55.8 | 0.02±0.002 | 0.62±0.02 | 2.15 | 0.11 | 1.31 | 0.86 | 1.47±0.02 | 222 to 223 | – | – | – | – |
| COc1cc(/C=N/NC(=O)c2cc(OC)c(OC)c(OC)c2)cc(OC)c1OC [Compound 5i, (E)-3,4,5-trimethoxy-N′-(3,4,5-trimethoxybenzylidene)benzohydrazide] | > 25 | 1 | 1 | > 25 | 1 | 0.0894 (≈ 0.221 µM) | > 25 | 1 | > 25 | 1 | 1 | > 25 | > 25 | > 61.8 | > 25 | 1 | 232 | – | – | – | – |
| COc1cc(C(=O)N/N=C/c2coc3ccccc3c2=O)cc(OC)c1OC [Compound 5j, (E)-3,4,5-trimethoxy-N′-((4-oxo-4H-chromen-3-yl)methylene)benzohydrazide] | > 25 | 1 | 1 | > 25 | 1 | 0.783 (≈ 2.05 µM) | > 25 | 1 | 23.4 | 2.8 | 1 | > 25 | > 25 | > 65.4 | > 25 | 1 | 205 to 206 | – | – | – | – |
| COc1cc(C(=O)N/N=C/c2cc(C(C)(C)C)c(O)c(C(C)(C)C)c2)cc(OC)c1OC [Compound 5k, (E)-N′-(3,5-di-tert-butyl-4hydroxybenzylidene)-3,4,5-trimetoxybenzohydrazide] | > 25 | 1 | 1 | > 25 | 1 | 0.0236 (≈ 0.0533 µM) | > 25 | 1.1 | > 25 | 1 | 1 | > 25 | > 25 | > 56.5 | > 25 | 1 | 222 to 224 | – | – | – | – |
| COc1cc(C(=O)N/N=C/c2ccc(F)cc2)cc(OC)c1OC [Compound 5p, (E)-N′-(4-fluorobenzylidene) - 3,4,5-trimetoxybenzohyidrazide] | 4.48 | 0.89±0.01 | 2.34±0.06 | 0.96 | 4.38±0.38 | 20.9 (≈ 62.9 µM) | 1.27 | 3.11±0.11 | 2.02 | 1.85±0.04 | 1.76±0.04 | 2.16 | 1.58 | 3.82 | 2.69 | 1.46±0.06 | 181 to 182 | – | – | – | – |
| COc1cc(C(=O)N/N=C/c2ccc(Cl)cc2)cc(OC)c1OC [Compound 5q, (E)-N′-(4-chlorobenzylidene)-3,4,5-trimetoxybenzohyidrazide] | 0.0275 | 2.10±0.10 | 3.07±0.22 | 0.024 | 2.75±0.25 | 28.4 (≈ 81.4 µM) | 0.036 | 1.85±0.15 | 0.046 | 1.25±0.05 | 0.05±0.005 | 1.05 | 0.018 | 0.06 | 0.072 | 0.85±0.05 | 187 to 188 | – | – | – | – |
| O=C(N/N=C/c1ccccc1)c1ccccc1 [Compound 9, (E)-N′-benzylidenebenzohydrazide] | – | – | – | – | – | – | – | – | – | – | – | – | – | – | – | – | 211 to 212 | loss of cytotoxic activity | > 25 | > 25 | IC50 (MDA-MB435 (melanoma) [6]; Table 4): > 25 µM; IC50 ([7]; Table 4): > 25 µM |
| COc1cc(/C=N/NC(=O)c2ccccc2)cc(OC)c1OC [Compound 10, (E)-N′-(3,4,5-trimethoxybenzylidene)-benzohydrazide] | – | – | – | – | – | – | – | – | – | – | – | – | – | – | – | – | 211 to 212 | inactive | > 25 | > 25 | IC50 (MDA-MB435 (melanoma) [6]; Table 4): > 25 µM; IC50 ([7]; Table 4): > 25 µM |
| COc1cc(NC(=O)N/N=C/c2ccccc2)cc(OC)c1OC [Compound 12, (E)-2-benzylidene-N-(3,4,5-trimetoxyphenyl) hydrazinecarboxamide] | – | – | – | – | – | – | – | – | – | – | – | – | – | – | – | – | 217 | inactive | > 25 | > 25 | IC50 (MDA-MB435 (melanoma) [6]; Table 4): > 25 µM; IC50 ([7]; Table 4): > 25 µM |
